Tests used:
[1] = tested on: MCF7-WT cells (MCF7 ER-alpha wildtype); assay: In vitro proliferation (viability) assay, CellTiter-Glo, MCF7-WT cells; assay type: cell-based; conditions: Homo sapiens; MCF7-WT cells, 6 days, CTG vs day 0; mean ± SD-type spread (n); read-out: GI50 WT
[2] = tested on: MCF7-Y537S cells (MCF7 ER-alpha Y537S mutant); assay: In vitro proliferation (viability) assay, CellTiter-Glo, MCF7-Y537S cells; assay type: cell-based; conditions: Homo sapiens; MCF7-Y537S cells, 6 days, CTG vs day 0; mean ± SD-type spread (n); read-out: GI50 MUT (Y537S)
In short: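 Stable lentiviral MCF7 lines expressing WT or Y537S ESR1 seeded at 1500 cells/well; next day dosed with 10-point 1:4 dilutions in triplicate, with media/compound refreshed on day 3. CellTiter-Glo luminescence on day 6 compared with a day 0 reading to give GI50.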

| SMILES | GI50 [1] | GI50 [2] |
| --- | --- | --- |
| CC/C(=C(/c1ccc(OCCNC/C=C/C(=O)N(C)C)cc1)c1ccc2[nH]nc(F)c2c1)c1ccccc1Cl [Compound 73, (E)-4-((2-(4-((E)-2-(2-chlorophenyl)-1-(3-fluoro-1H-indazol-5-yl)but-1-en-1-yl)phenoxy)ethyl)amino)-N,N-dimethylbut-2-enamide] | 1.7 nM | 40.5 nM |
| CC/C(=C(/c1ccc(OCCNC/C=C/C(=O)N(C)C)cc1)c1ccc2[nH]ncc2c1)c1ccc(F)cc1Cl [Compound 74, (E)-4-((2-(4-((E)-2-(2-chloro-4-fluorophenyl)-1-(1H-indazol-5-yl)but-1-en-1-yl)phenoxy)ethyl)amino)-N,N-dimethylbut-2-enamide] | 1.8 ± 0.5 nM | 28.8 ± 14 nM |
| CC/C(=C(/c1ccc(OCCNC/C=C/C(=O)N(C)CCO)cc1)c1ccc2[nH]nc(F)c2c1)c1ccncc1 [Compound 75, (E)-4-((2-(4-((E)-1-(3-fluoro-1H-indazol-5-yl)-2-(pyridin-4-yl)but-1-en-1-yl)phenoxy)ethyl)amino)-N-(2-hydroxyethyl)-N-methylbut-2-enamide] | 3.2 nM | 72.2 nM |
| CC/C(=C(/c1ccc(OCCNC/C=C/C(=O)N(C)C)cc1)c1cc(F)c2[nH]ncc2c1)c1ccccc1 [Compound 76, (E)-4-((2-(4-((E)-1-(7-fluoro-1H-indazol-5-yl)-2-phenylbut-1-en-1-yl)phenoxy)ethyl)amino)-N,N-dimethylbut-2-enamide] | 1.2 nM | 32.2 nM |
| CCC/C(=C(/c1ccc(OCCNC/C=C/C(=O)N(C)C)cc1)c1ccc2[nH]nc(F)c2c1)c1ccccc1 [Compound 77, (E)-4-((2-(4-((E)-1-(3-fluoro-1H-indazol-5-yl)-2-phenylpent-1-en-1-yl)phenoxy)ethyl)amino)-N,N-dimethylbut-2-enamide] | 2.4 nM | 35 nM |
| CC/C(=C(/c1ccc(OCCNC/C=C/C(=O)N(C)C)cc1)c1cc(F)c2[nH]nc(F)c2c1)c1ccccc1 [Compound 79, (E)-4-((2-(4-((E)-1-(3,7-difluoro-1H-indazol-5-yl)-2-phenylbut-1-en-1-yl)phenoxy)ethyl)amino)-N,N-dimethylbut-2-enamide] | 6.9 nM | 92.5 nM |
| CC/C(=C(/c1ccc(OCCNC/C=C/C(=O)N(C)C)cc1)c1ccc2[nH]nc(F)c2c1)c1cc(F)ccc1F [Compound 80, (E)-4-((2-(4-((E)-2-(2,5-difluorophenyl)-1-(3-fluoro-1H-indazol-5-yl)but-1-en-1-yl)phenoxy)ethyl)amino)-N,N-dimethylbut-2-enamide] | 2 nM | 33.6 nM |
| CC/C(=C(/c1ccc(OCCNC/C=C/C(=O)N(C)C)cc1)c1ccc2[nH]nc(F)c2c1)c1ccncc1F [Compound 81, (E)-4-((2-(4-((E)-1-(3-fluoro-1H-indazol-5-yl)-2-(3-fluoropyridin-4-yl)but-1-en-1-yl)phenoxy)ethyl)amino)-N,N-dimethylbut-2-enamide] | 0.3 nM | 13 nM |
| CC(C)/C(=C(/c1ccc(OCCNC/C=C/C(=O)N(C)C)cc1)c1ccc2[nH]nc(F)c2c1)c1ccccc1 [Compound 82, (E)-4-((2-(4-((E)-1-(3-fluoro-1H-indazol-5-yl)-3-methyl-2-phenylbut-1-en-1-yl)phenoxy)ethyl)amino)-N,N-dimethylbut-2-enamide] | 4.65 ± 2.9 nM | 93.7 ± 6.3 nM |
| CN(C)C(=O)/C=C/CNCCOc1ccc(/C(=C(/CCF)c2ccccc2)c2ccc3[nH]nc(F)c3c2)cc1 [Compound 84] | 2.15 ± 0.15 nM | 34.9 ± 1.5 nM |
| CC/C(=C(/c1ccc(OCCNCC/C=C/C(=O)N(C)C)cc1)c1ccc2[nH]nc(F)c2c1)c1ccc(F)cc1Cl [Compound 85] | 1.56 ± 0.56 nM | 28.4 ± 2.9 nM |
| CC/C(=C(/c1ccc(OCCNC/C=C(\C)C(=O)N(C)C)cc1)c1ccc2[nH]nc(F)c2c1)c1ccc(F)cc1Cl [Compound 86] | 1.73 ± 1 nM | 29.4 ± 4.7 nM |
| CN(C)C(=O)/C=C/CNCCOc1ccc(/C(=C(/CC(F)(F)F)c2ccc(F)cc2Cl)c2ccc3[nH]nc(F)c3c2)cc1 [Compound 87, (E)-4-((2-(4-((E)-2-(2-chloro-4-fluorophenyl)-4,4,4-trifluoro-1-(3-fluoro-1H-indazol-5-yl)but-1-en-1-yl)phenoxy)ethyl)amino)-N,N-dimethylbut-2-enamide] | 0.25 nM | 21.9 nM |
| [2H]c1c([2H])c([2H])c(/C(CC)=C(\c2ccc(OCCNC/C=C/C(=O)N(C)C)cc2)c2ccc3[nH]ncc3c2)c([2H])c1[2H] [Compound 88, (E)-4-((2-(4-((E)-1-(1H-indazol-5-yl)-2-(phenyl-d5)but-1-en-1-yl)phenoxy)ethyl)amino)-N,N-dimethylbut-2-enamide] | 0.7 nM | 12.5 nM |
| CC/C(=C(/c1ccc(OCCNC(C)/C=C/C(=O)N(C)C)cc1)c1ccc2[nH]ncc2c1)c1ccccc1 (centres unmarked) [Compound 89, (E)-4-((2-(4-((E)-1-(1H-indazol-5-yl)-2-phenylbut-1-en-1-yl)phenoxy)ethyl)amino)-N,N-dimethylpent-2-enamide] | 2.8 nM | 35 nM |
| CC/C(=C(/c1ccc(OC(C)CNC/C=C/C(=O)N(C)C)cc1)c1ccc2[nH]ncc2c1)c1ccccc1 (centres unmarked) [Compound 90, (E)-4-((2-(4-((E)-1-(1H-indazol-5-yl)-2-phenylbut-1-en-1-yl)phenoxy)propyl)amino)-N,N-dimethylbut-2-enamide] | 2.5 nM | 22.7 nM |
| CC/C(=C(/c1ccc(OCC(C)NC/C=C/C(=O)N(C)C)cc1)c1ccc2[nH]ncc2c1)c1ccccc1 (centres unmarked) [Compound 92, (E)-4-((1-(4-((E)-1-(1H-indazol-5-yl)-2-phenylbut-1-en-1-yl)phenoxy)propan-2-yl)amino)-N,N-dimethylbut-2-enamide] | 2.3 nM | 26.9 nM |
| CC/C(=C(\c1ccc2[nH]nc(F)c2c1)c1ccc(OCCNC/C=C/C(=O)N(C)C)cn1)c1ccccc1 [Compound 93, (E)-4-((2-((6-((Z)-1-(3-fluoro-1H-indazol-5-yl)-2-phenylbut-1-en-1-yl)pyridin-3-yl)oxy)ethyl)amino)-N,N-dimethylbut-2-enamide] | 12.4 nM | 369 nM |
| CC/C(=C(/c1ccc(OCCCNC/C=C/C(=O)N(C)C)cc1)c1ccc2[nH]ncc2c1)c1ccccc1 [Compound 95, (E)-4-((3-(4-((E)-1-(1H-indazol-5-yl)-2-phenylbut-1-en-1-yl)phenoxy)propyl)amino)-N,N-dimethylbut-2-enamide] | 1.8 nM | 32.4 nM |
| CC/C(=C(/c1ccc(OC(C)C(C)NC/C=C/C(=O)N(C)C)cc1)c1ccc2[nH]ncc2c1)c1ccccc1 (centres unmarked) [Compound 96, (E)-4-((3-(4-((E)-1-(1H-indazol-5-yl)-2-phenylbut-1-en-1-yl)phenoxy)butan-2-yl)amino)-N,N-dimethylbut-2-enamide] | 2 nM | 27.2 nM |
| CC/C(=C(/c1ccc(OCC(C)(C)NC/C=C/C(=O)N(C)C)cc1)c1ccc2[nH]ncc2c1)c1ccccc1 [Compound 98, (E)-4-((1-(4-((E)-1-(1H-indazol-5-yl)-2-phenylbut-1-en-1-yl)phenoxy)-2-methylpropan-2-yl)amino)-N,N-dimethylbut-2-enamide] | 0.4 nM | 13.4 nM |
| CC/C(=C(/c1ccc(OC(C)(C)CNC/C=C/C(=O)N(C)C)cc1)c1ccc2[nH]ncc2c1)c1ccccc1 [Compound 99, (E)-4-((2-(4-((E)-1-(1H-indazol-5-yl)-2-phenylbut-1-en-1-yl)phenoxy)-2-methylpropyl)amino)-N,N-dimethylbut-2-enamide] | 2.7 nM | 81.4 nM |

Source: patent publication US10851065B2 (Eisai R&D Management Co., Ltd., priority 2015, dated 2020)
